Experimental data: patent US20250326748A1, “COMPOUNDS AND METHODS FOR MODULATING SPLICING” (REMIX THERAPEUTICS INC., priority 2022, published 2025)
pIC50: −log10 of the molar value. Structures can show the parent of a compound that is named as a salt. Where two headings read alike, the source gives them in different places.

Key:
MYB mRNA = assay: Splicing RT-qPCR assay, MYB canonical (CJ) and alternative (AJ) junction mRNA; format: cell-based, human; settings: Homo sapiens; for pIC50: canonical junction mRNA; for AC50: alternative junction mRNA, read-out: MYB AJ (AC50, increase in AJ mRNA)
In short: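 A673 cells (DMEM, 10% FBS) or K562 cells (IMDM, 10% FBS) were treated for 24 h at 37° C with an 11-point 3-fold dilution series, top dose 10 uM, DMSO ≤0.25%. Canonical and alternative junction mRNA was measured in lysates by one-step RT-qPCR. Normalization used PPIA for A673 and GAPDH or GUSB for K562.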

HiBiT-tagged MYB protein = assay: HiBiT protein abundance assay, MYB (K562 HiBiT knock-in); format: cell-based, human; settings: HiBiT knock-in cells, 24 hours
In short: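 Endogenously HiBiT-tagged K562 knock-in lines treated 24 h at 37 °C with 10-point 3-fold dilutions (top 10 μM final, DMSO ≤0.25%) in IMDM+1% FBS. Lytic Nano-Glo luminescence normalized to DMSO and unmodified K562 controls; four-parameter fit gives 50%-abundance concentration (IC50).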

[1] = qPCR panel, read-out: MYB CJ (decrease in CJ mRNA levels, IC50)
[2] = RT-qPCR, A673 or K562 cells, 24 hours treatment
[3] = RT-qPCR, A673 or K562 cells, 24 hours treatment, read-out: MYB CJ (IC50, decrease in CJ mRNA)

SMILES	pIC50 (MYB mRNA; [1])	AC50 (MYB mRNA; [2]) [nM]	pIC50 (MYB mRNA; [3])	pIC50 (HiBiT-tagged MYB protein)
Cc1c(O)c(-c2cc(Cl)c3cc(N4C[C@@H](C)N[C@@H](C)C4)cnc3n2)cc2cn(C)nc12 [Compound 149]	> 7.00	< 100	> 7.00	> 7.00
CNC(=O)c1cc(-c2cc3cn(C)nc3c(C)c2O)nc2ncc(N3CCNCC3)cc12 [Compound 150, 2-(6-hydroxy-2,7-dimethylindazol-5-yl)-N-methyl-6-(piperazin-1-yl)-1,8-naphthyridine-4-carboxamide]	< 5.00	> 10000	< 5.00	< 5.00
Cc1cc(-c2cc3cn(C)nc3c(C)c2O)nc2ncc(N3CCNCC3)cc12 [Compound 151, 2,7-dimethyl-5-[4-methyl-6-(piperazin-1-yl)-1,8-naphthyridin-2-yl]indazol-6-ol]	> 7.00	< 100	> 7.00	> 7.00
Cc1cn2cc(-c3cc(Cl)c4cc(N5CCNCC5)cnc4n3)cc(F)c2n1 [Compound 153, 4-chloro-2-{8-fluoro-2-methylimidazo[1,2-a]pyridin-6-yl}-6-(piperazin-1-yl)-1,8-naphthyridine]	6.00 to 7.00	< 100	6.00 to 7.00	6.00 to 7.00
CN[C@H]1CCN(c2cnc3nc(-c4cc5cn(C)nc5c(F)c4O)cc(Cl)c3c2)C1 [Compound 272]	> 7.00	< 100	> 7.00	> 7.00
Cn1cc2cc(-c3cc(Cl)c4cc(N5CCNC6(CC6)C5)cnc4n3)c(O)c(F)c2n1 [Compound 274]	> 7.00	< 100	> 7.00	> 7.00
CN(c1cnc2nc(-c3cc4cn(C)nc4c(F)c3O)cc(Cl)c2c1)[C@H]1CCNC1 [Compound 275]	> 7.00	< 100	> 7.00	> 7.00
CN(c1cnc2nc(-c3cc4cn(C)nc4c(F)c3O)cc(Cl)c2c1)[C@@H]1CCNC1 [Compound 276]	> 7.00	< 100	> 7.00	> 7.00
Cc1c(O)c(-c2ccc3c(Cl)c(N4CCNCC4)cnc3n2)cc2cn(C)nc12 [Compound 278, 5-[5-chloro-6-(piperazin-1-yl)-1,8-naphthyridin-2-yl]-2,7-dimethylindazol-6-ol]	> 7.00	< 100	> 7.00	> 7.00
C[C@@H]1CN(c2cnc3nc(-c4cc5cn(C)nc5c(F)c4O)cc(Cl)c3c2)C[C@H](C)N1 [Compound 279]	> 7.00	< 100	> 7.00	> 7.00
C[C@H]1CN(c2cnc3nc(-c4cc5cn(C)nc5c(F)c4O)cc(Cl)c3c2)C[C@H](C)N1 [Compound 280]	> 7.00	< 100	> 7.00	> 7.00
C[C@@H]1CN(c2cnc3nc(-c4cc5cn(C)nc5c(F)c4O)cc(Cl)c3c2)C[C@@H](C)N1 [Compound 281]	> 7.00	< 100	> 7.00	> 7.00
CN(c1cnc2nc(-c3cc4cn(C)nc4c(F)c3O)ccc2c1)C1CCNCC1 [Compound 284]	6.00 to 7.00	100 to 1000	6.00 to 7.00	6.00 to 7.00
Cn1cc2cc(-c3ccc4cc(NC5CCNCC5)cnc4n3)c(O)c(F)c2n1 [Compound 285]	6.00 to 7.00	100 to 1000	6.00 to 7.00	6.00 to 7.00
CN[C@@H]1CCN(c2cnc3nc(-c4cc5cn(C)nc5c(C)c4O)cc(Cl)c3c2)C1 [Compound 286, 5-{4-chloro-6-[(3R)-3-(methylamino)pyrrolidin-1-yl]-1,8-naphthyridin-2-yl}-2,7-dimethylindazol-6-ol hydrochloride]	> 7.00	< 100	> 7.00	> 7.00
CN[C@H]1CCN(c2cnc3nc(-c4cc5cn(C)nc5c(C)c4O)cc(Cl)c3c2)C1.Cl [Compound 287]	> 7.00	< 100	> 7.00	> 7.00
C[C@H]1CN(c2cnc3nc(-c4cc(F)c5nn(C)cc5c4)cc(Cl)c3c2)C[C@@H](C2CC2)N1 [Compound 288]	6.00 to 7.00	100 to 1000	6.00 to 7.00	6.00 to 7.00
Cc1c(O)c(-c2cc(Cl)c3cc(N(C)[C@@H]4CCNC4)cnc3n2)cc2cn(C)nc12.Cl [Compound 293]	6.00 to 7.00	100 to 1000	6.00 to 7.00	6.00 to 7.00
Cc1c(O)c(-c2cc(Cl)c3cc(N(C)[C@H]4CCNC4)cnc3n2)cc2cn(C)nc12 [Compound 294]	6.00 to 7.00	100 to 1000	6.00 to 7.00	6.00 to 7.00
C[C@@H]1CN(c2cnc3nc(-c4cc(F)c5nn(C)cc5c4)cc(Cl)c3c2)CCN1 [Compound 295, 4-chloro-2-(7-fluoro-2-methylindazol-5-yl)-6-[(3R)-3-methylpiperazin-1-yl]-1,8-naphthyridine]	> 7.00	100 to 1000	> 7.00	6.00 to 7.00
C[C@H]1CN(c2cnc3nc(-c4cc(F)c5nn(C)cc5c4)cc(Cl)c3c2)CCN1 [Compound 296]	> 7.00	100 to 1000	> 7.00	> 7.00
Cc1cn2cc(-c3cc(Cl)c4cc(N5C[C@@H](C)N[C@@H](C)C5)cnc4n3)cc(F)c2n1 [Compound 297]	6.00 to 7.00	100 to 1000	6.00 to 7.00	6.00 to 7.00
Cc1cn2cc(-c3cc(Cl)c4cc(N5C[C@H](C)N[C@@H](C)C5)cnc4n3)cc(F)c2n1 [Compound 298]	> 7.00	< 100	> 7.00	> 7.00
Cc1c(O)c(-c2ccc3c(C(F)(F)F)c(N4CCNCC4)cnc3n2)cc2cn(C)nc12 [Compound 302, 2,7-dimethyl-5-[6-(piperazin-1-yl)-5-(trifluoromethyl)-1,8-naphthyridin-2-yl]indazol-6-ol]	6.00 to 7.00	100 to 1000	6.00 to 7.00	6.00 to 7.00
CN1CCC[C@@H]2CN(c3cnc4nc(-c5cc6cn(C)nc6c(F)c5O)cc(Cl)c4c3)C[C@@H]21 [Compound 303]	6.00 to 7.00	100 to 1000	6.00 to 7.00	6.00 to 7.00
CN1CCC[C@H]2CN(c3cnc4nc(-c5cc6cn(C)nc6c(F)c5O)cc(Cl)c4c3)C[C@H]21 [Compound 304]	6.00 to 7.00	100 to 1000	6.00 to 7.00	6.00 to 7.00
C[C@@H]1CN(c2cnc3nc(-c4cc5cn(C)nc5c(F)c4O)cc(C4CC4)c3c2)C[C@H](C)N1 [Compound 305, 5-{4-cyclopropyl-6-[(3R,5S)-3,5-dimethylpiperazin-1-yl]-1,8-naphthyridin-2-yl}-7-fluoro-2-methylindazol-6-ol]	6.00 to 7.00	100 to 1000	6.00 to 7.00	6.00 to 7.00
CCN[C@@H]1CCN(c2cnc3nc(-c4cc5cn(C)nc5cc4O)ccc3c2)C1 [Compound 310, 5-{6-[(3R)-3-(ethylamino)468pyrrolidine-1-yl]-1,8-naphthyridin-2-yl}-2-methylindazol-6-ol hydrochloride]	> 7.00	< 100	> 7.00	> 7.00
CCN[C@H]1CCN(c2cnc3nc(-c4cc5cn(C)nc5cc4O)ccc3c2)C1 [Compound 311, 5-{6-[(3S)-3-(ethylamino)pyrrolidin-1-yl]-1,8-naphthyridin-2-yl}-2-methylindazol-6-ol hydrochloride]	6.00 to 7.00	100 to 1000	6.00 to 7.00	6.00 to 7.00
Cn1cc2cc(-c3ccc4cc(N5CC[C@@H](NCC6CC6)C5)cnc4n3)c(O)cc2n1 [Compound 313]	6.00 to 7.00	< 100	6.00 to 7.00	6.00 to 7.00
